The text below walks through data of patent publication US20220096641A1, “PYRROLOBENZODIAZEPINE DIMER COMPOUND WITH IMPROVED SAFETY AND USE THEREOF” (priority 2019, published 2022).

Molecules are shown by their SMILES. Like-named read-outs stand apart in the source and are kept apart here. Square brackets hold non-standard residues; d marks the D form. Peptide text beside a SMILES is read from it. * marks the point of attachment. Dolaproine = CO[C@@H]([C@@H]1CCCN1)[C@@H](C)C(=O)O; Dil = CC[C@H](C)[C@H](NC)[C@@H](CC(=O)O)OC; X1 = C[C@@H](N*)[C@@H](O)c1ccccc1; NMeV = CN[C@H](C(=O)O)C(C)C Where only a bound is given, the exact number is not on record here.

For data set [1], the system named is Co-culture SK-BR3:MDA-MB-468 = 1:1. Nature of the data set: Bystander effect experiment, co-culture. The conditions noted are these: for viability at 0.001 µM: Homo sapiens, 144 h, read-out: Cell viability (%) Co-culture (SK-BR3:MDA-MB-468 = 1:1); for Cell viability (%) Co-culture (SK-BR3:MDA-MB-468 = 1:1): single concentration of 1 nM, 144 hours, SRB. As to the method:
(§1) The cell proliferation inhibitory activity of the drugs and ADC presented in Table 4 below on cancer cell lines was measured. The SK-BR3 human breast cancer cell line (procured from Korea Cell Line Bank (KCLB)) was used as a HER2-positive cell line, and the MDA-MB-468 human triple-negative breast cancer cell line (procured from ATCC) was used as a HER2-negative cell line. […] All ADCs used in the experiment were anti-HER2 ADCs. In a 96-well plate, 6,000 SK-BR3, 6,000 MDA-MB-468, or 3,000 SK-BR3 and 3,000 MDA-MB-468 per well were seeded together, cultured for 24 hours, and then treated with each drug and ADC at a single concentration of 1 nM. After 144 hours, the number of viable cells was quantified using SRB (Sulforhodamine B) dye.

Data set [2] concerns MDA-MB-468 human triple-negative breast cancer cell line (HER2-negative). The data set can be described thus: Bystander effect experiment, MDA-MB-468 alone. The conditions noted are these: for viability at 0.001 µM: Homo sapiens, MDA-MB-468, 144 h, read-out: Cell viability (%) MDA-MB-468; for Cell viability (%) MDA-MB-468: single concentration of 1 nM, 144 hours, SRB. As to the method:
as §1

A short description of data set [3]: Rat pre-tox experiment (single dose toxicity). Particulars: single tail vein dose; for inhibition of weight gain: SG2057 statement for 0.02 mg/kg and 0.04 mg/kg groups. The data set is classed as in vivo, SD rats. As to the method:
Twenty one 8-week-old male SD rats were divided into 7 groups of 3 rats each, the test material was administered thereto through the tail vein at 2 mL/kg one time, and the weight/death/clinical symptoms and the like thereof were observed. The body weight was measured two times a week, and death and clinical symptoms were observed daily. Four weeks after administration, planned slaughter was performed to examine the gross findings of organs. The results are as illustrated in FIG. 3.

Data set [4] relates to SK-BR3 (HER2 positive). The data set can be described thus: In vitro cytotoxicity (cell proliferation inhibition, SRB), SK-BR3. Type of data set: cell-based. The conditions noted are these: Homo sapiens. The method, then: (§2) The cell proliferation inhibitory activity of the drugs and ADCs presented in Tables 2 and 3 below on cancer cell lines was measured. As the cancer cell lines, commercially available human breast cancer cell lines MCF-7 (HER2 negative to normal), SK-BR3 (HER2 positive), and JIMT-1 (HER2 positive) were used. […] In a 96-well plate, 5,000 SK-BR3, 5,000 MCF-7, and 2,500 JIMT-1 per well were seeded, cultured for 24 hours, and then treated with ADCs at a concentration of 25 fM to 10 nM (5-fold serial dilutions) and drugs at a concentration of 25 fM to 10 nM (5-fold serial dilutions) or 1 fM to 100 nM (10-fold serial dilutions).

The test system of data set [5] is MCF-7 (HER2 negative to normal). Nature of the data set: In vitro cytotoxicity (cell proliferation inhibition, SRB), MCF-7. The data set is classed as cell-based. The conditions noted are these: Homo sapiens. As to the method: as §2
The subject of data set [6] is JIMT-1 (HER2 positive). Nature of the data set: In vitro cytotoxicity (cell proliferation inhibition, SRB), JIMT-1. The data set is classed as cell-based. The conditions noted are these: Homo sapiens. As to the method: as §2
The subject of data set [7] is SK-BR3 human breast cancer cell line (HER2-positive). The data set can be described thus: Bystander effect experiment, SK-BR3 alone. The conditions noted are these: for viability at 0.001 µM: Homo sapiens, SK-BR-3, 144 h, read-out: Cell viability (%) SK-BR3; for Cell viability (%) SK-BR3: single concentration of 1 nM, 144 hours, SRB. As to the method: as §1
Data set [8] concerns Co-culture SK-BR3:MDA-MB-468 = 1:1. Particulars: free toxin control materials; cited from earlier work.
The mark [9] stands for this setting: first of three dose groups (dose not given).
[10] abbreviates: second of three dose groups (apparently 0.02 mg/kg).
Setting [11] is: third of three dose groups (apparently 0.04 mg/kg).
The mark [12] stands for this setting: SK-BR-3, 144 h, read-out: IC50 (nM) SK-BR3, pyrrolobenzodiazepine derivatives (free drugs), 144 hours, SRB.
[13] abbreviates: MCF7, 144 h, read-out: IC50 (nM) MCF7, pyrrolobenzodiazepine derivatives (free drugs), 144 hours, SRB.
Where [14] appears, read: JIMT-1, 144 h, read-out: IC50 (nM) JIMT-1, pyrrolobenzodiazepine derivatives (free drugs), 144 hours, SRB.

As to `C=C1CC2CNc3cc(OCc4cc(COc5cc6c(cc5OC)C(=O)N5CC(=C)C[C@H]5CN6)cc(OCCOCCOCCOCC(=O)O)c4)c(OC)cc3C(=O)N2C1` (some centres unmarked) [Compound 32], the viability at 0.001 µM in data set [1] turned out to be 98%; in data set [2] it was 101%; in data set [7], 98%. For the same molecule, the bystander effect entry in data set [1] (conclusion from mono- and co-culture viability at 1 nM) is reported as “do not exhibit a bystander effect”. Also, the “body weight at end of 4th week as compared to body weight at time of administration” value was found to be 171% in data set [3] (setting [9]), 164% in data set [3] (setting [10]) and 161% in data set [3] (setting [11]). Also, the “inhibition of weight gain” value in data set [3] is “very insignificant”. Besides, the IC50 was 18.2 nM in data set [4] (SK-BR-3, pyrrolobenzodiazepine derivatives (free drugs), 144 hours, SRB, read-out: IC50 (nM) SK-BR3); over 100 nM in data set [5] (MCF7, pyrrolobenzodiazepine derivatives (free drugs), 144 hours, SRB, read-out: IC50 (nM) MCF7); over 100 nM in data set [6] (JIMT-1, pyrrolobenzodiazepine derivatives (free drugs), 144 hours, SRB, read-out: IC50 (nM) JIMT-1).
In the case of `C=C1C[C@H]2C=Nc3cc(OCc4cc(COc5cc6c(cc5OC)C(=O)N5CC(=C)C[C@H]5C=N6)cc(OCCOCCOCCOCC(=O)OC)c4)c(OC)cc3C(=O)N2C1` [Compound 33], the IC50 in data set [4] (setting [12]), in data set [5] (setting [13]) and in data set [6] (setting [14]) was over 100 nM in each case.
Regarding `C=C1C[C@H]2C=Nc3cc(OCc4cc(COc5cc6c(cc5OC)C(=O)N5CC(=C)C[C@H]5C=N6)cc(OCCOCCOCCOCC(=O)NC(CC(=O)O)CC(=O)O)c4)c(OC)cc3C(=O)N2C1` [Compound 52], the concentration for half-maximal inhibition (IC50) in data set [4] (setting [12]), in data set [5] (setting [13]) and in data set [6] (setting [14]) was over 100 nM each time.
As to `C=C1C[C@H]2C=Nc3cc(OCc4cc(COc5cc6c(cc5OC)C(=O)N5CC(=C)C[C@H]5C=N6)cc(OCCOCCOCCOCC(=O)NC(CC(=O)OC)CC(=O)OC)c4)c(OC)cc3C(=O)N2C1` [Compound 53], the figures for the IC50 in data set [4] (setting [12]), in data set [5] (setting [13]) and in data set [6] (setting [14]) were 2.52 nM, 11.8 nM and 8.93 nM, respectively.
Consider `CC[C@H](C)[C@@H]([C@@H](CC(=O)N1CCC[C@H]1[C@H](OC)[C@@H](C)C(=O)N[C@H](C)[C@@H](O)c1ccccc1)OC)N(C)C(=O)[C@@H](NC(=O)[C@@H](NC)C(C)C)C(C)C` [MMAE] (H-[NMeV]V[Dil][Dolaproine]-X1), for which the “Cell viability (%) Co-culture (SK-BR3:MDA-MB-468 = 1:1)” value in data set [1] is 12%. Moreover, in data set [2], the “Cell viability (%) MDA-MB-468” value is listed as 14%. In data set [8], the “bystander effect (already known)” value was “known to exhibit a bystander effect”. The “Cell viability (%) SK-BR3” value in data set [7] was found to be 12%.
As to `CC[C@H](C)[C@@H]([C@@H](CC(=O)N1CCC[C@H]1[C@H](OC)[C@@H](C)C(=O)N[C@@H](Cc1ccccc1)C(=O)O)OC)N(C)C(=O)[C@@H](NC(=O)[C@@H](NC)C(C)C)C(C)C` [MMAF] (H-[NMeV]V[Dil][Dolaproine]F-OH), the “Cell viability (%) Co-culture (SK-BR3:MDA-MB-468 = 1:1)” value in data set [1] amounted to 99%. Further, the “Cell viability (%) MDA-MB-468” value in data set [2] is 105%. For the same molecule, in data set [8], the “bystander effect (already known)” value is “known to exhibit no bystander effect”. The “Cell viability (%) SK-BR3” value in data set [7] is 101%.
For the molecule `C=C1C[C@H]2C=Nc3cc(OCCCCCOc4cc5c(cc4OC)C(=O)N4CC(=C)C[C@H]4C=N5)c(OC)cc3C(=O)N2C1` [SG2057], the viability at 0.001 µM in data set [1] was determined as 6%; in data set [2], 4%; in data set [7], 7%. Also, the entries for the “body weight at end of 4th week as compared to body weight at time of administration” value in data set [3] (setting [9]), in data set [3] (setting [10]) and in data set [3] (setting [11]) were 167%, 148% and 115%, respectively. For the same molecule, the “inhibition of weight gain” value in data set [3] is given as “significantly inhibited weight gain”. Also, the IC50 in data set [4] (SK-BR-3, 144 h, read-out: IC50 (nM) SK-BR3, comparison of anti-HER2 ADCs, 144 hours, SRB) amounted to 0.02 nM; in data set [4] (setting [12]), 0.01 nM; in data set [5] (MCF7, 144 h, read-out: IC50 (nM) MCF7, comparison of anti-HER2 ADCs, 144 hours, SRB), 0.06 nM; in data set [5] (setting [13]), 0.05 nM; in data set [6] (JIMT-1, 144 h, read-out: IC50 (nM) JIMT-1, comparison of anti-HER2 ADCs, 144 hours, SRB), 0.05 nM; in data set [6] (setting [14]), 0.04 nM.
